# In patent US12419307B2, “Mixtures comprising indazole pesticides” (FMC Corporation, priority 2019, dated 2025):
# Like-named read-outs stand apart in the source and are kept apart here.
# What was measured:
# Assay type in all cases: in vivo
# [1] = system: corn planthopper (Peregrinus maidis (Ashmead)); experiment: Test C: corn planthopper control on corn plants, insect mortality after 6 days; conditions: Peregrinus maidis, read-out: % Mortality (obs)
# Method: (§1) The pest control protection afforded by the mixtures or compositions is not limited, however, to these species. The analysis of enhanced activity between the mixtures or compositions was determined using Colby's equation. The average % mortality data for the test compounds alone were inserted into the Colby's equation. If the observed (obs) average % mortality was higher than “p”, the expected (exp) % mortality, the mixture or composition had enhanced effects. If the observed average % mortality was equal to or lower than the expected mortality, the mixture or composition either had no enhanced effect. For bioassays where insect feeding damage was evaluated, enhanced activity is identified when the observed plant damage is less than the expected plant damage rating; ratings ranged between 0 (no damage) and 10 (dead plant) and each value was converted to a % plant protection. 100−(Obs Plant Damage*10)
# For evaluating control of corn planthopper (Peregrinus maidis (Ashmead)) through contact and/or systemic means, the test unit consisted of a small open container with a 3-4-day-old corn (maize) plant inside. White sand was added to the top of the soil prior to application of the test compound.
# Test compounds were formulated and sprayed at 250 and/or 50 ppm and/or 10 ppm. After spraying of the formulated test compound, the test units were allowed to dry for 1 h before they were post-infested with ˜15-20 nymphs (18-to-21-day-old). […]
# [2] = system: diamondback moth (Plutella xylostella L.); experiment: Test E: diamondback moth control through ingestion only, sprayed cabbage leaf tissue (Dipel), mortality after 4 days; conditions: Table 6c, read-out: % Mortality (obs)
# Method: as §1
# For evaluating control of diamondback moth (Plutella xylostella L.) through ingestion only, the test substance Dipel® (active ingredient Bacillus thuringiensis kurstaki) was formulated by diluting in water and then adding an MSO based adjuvant at 0.1% v/v. Cabbage plants were sprayed with Dipel® to runoff and allowed to dry for three hours. Once dry, plants leaf tissue was excised and one piece was placed into one well in an eight well tray. Test units were maintained in a growth chamber at 24-25° C. and 70% relative humidity.
# [3] = system: cotton melon aphid (Aphis gossypii Glover); experiment: Test D: cotton melon aphid control on okra plants, insect mortality after 6 days; conditions: Aphis gossypii, read-out: % Mortality (obs)
# How it was run: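 Okra plants (6–7 days old) pre-infested with 30–40 aphids by cut-leaf transfer were sprayed, three replicates, then held 6 days at 19-21° C and 50-70% RH before mortality scoring. Mixture enhancement was judged against Colby-expected % mortality.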
structure (smiles),measurement,setting,value
"O=C(NC1(C(F)F)CC1)c1cccc2nn(-c3cccnc3)cc12 [Cpd 5, N-[1-(difluoromethyl)cyclopropyl]-2-(3-pyridinyl)-2H-indazole-4-carboxamide]",mortality at 50 ppm,"[1]; 96 h, Table 4d",5.3%
same,mortality at 250 ppm,"[1]; 96 h, Table 4d",75%
same,mortality at 50 ppm,[1]; Table 4e,21.6%
same,mortality at 250 ppm,[1]; Table 4e,13.1%
same,mortality at 50 ppm,[1]; Table 4f,15.3%
same,mortality at 250 ppm,[1]; Table 4f,22.4%
same,mortality at 50 ppm,[1]; Table 4g,15.3%
same,mortality at 250 ppm,[1]; Table 4g,22.4%
same,mortality at 50 ppm,[2]; 50 ppm,21%
same,mortality at 250 ppm,[2]; 250 ppm,25%
same,mortality at 0.12 ppm,"[3]; 5 h, Table 5h",40%
same,mortality at 0.18 ppm,"[3]; 5 h, Table 5h",68.4%
same,mortality at 0.12 ppm,"[3]; 120 h, Table 5d",34%
same,mortality at 0.18 ppm,"[3]; 120 h, Table 5d",62.7%
same,mortality at 0.12 ppm,[3]; Table 5a,34%
same,mortality at 0.18 ppm,[3]; Table 5a,62.7%
same,mortality at 0.12 ppm,[3]; Table 5b,34%
same,mortality at 0.18 ppm,[3]; Table 5b,62.7%
same,mortality at 0.12 ppm,[3]; Table 5c,73.3%
same,mortality at 0.18 ppm,[3]; Table 5c,6.7%
same,mortality at 0.12 ppm,[3]; Table 5e,32.2%
same,mortality at 0.18 ppm,[3]; Table 5e,61.6%
same,mortality at 0.12 ppm,[3]; Table 5f,44.9%
same,mortality at 0.18 ppm,[3]; Table 5f,58.9%
same,mortality at 0.12 ppm,[3]; Table 5g,25.8%
same,mortality at 0.18 ppm,[3]; Table 5g,44.3%
same,mortality at 0.12 ppm,[3]; Table 5i,41.6%
same,mortality at 0.18 ppm,[3]; Table 5i,70.3%
same,mortality at 0.12 ppm,[3]; Table 5j,41.6%
same,mortality at 0.18 ppm,[3]; Table 5j,70.3%
same,mortality at 0.12 ppm,[3]; Table 5k,35.9%
same,mortality at 0.18 ppm,[3]; Table 5k,67.2%
same,mortality at 0.12 ppm,[3]; Table 5l,35.9%
same,mortality at 0.18 ppm,[3]; Table 5l,67.2%
same,mortality at 0.12 ppm,[3]; Table 5m,37.3%
same,mortality at 0.18 ppm,[3]; Table 5m,61.7%
same,mortality at 0.12 ppm,[3]; Table 5n,48.9%
same,mortality at 0.18 ppm,[3]; Table 5n,77.7%
